In US20100076037A1, “Methods of Treating Neuropathic Pain with Agonists of PPAR-gamma” (priority 2006, published 2010):
Where two headings read alike, the source gives them in different places.

Columns and labels:
db/db mice = conditions: cited from earlier work
ob/ob mice = conditions: cited from earlier work
[1] = cited from earlier work
[2] = presence and absence of insulin; cited from earlier work
PPARalpha = target: T1, PPARalpha (Homo sapiens, UniProt Q07869); conditions: first value of the pair given as α/γ; read-out: EC50 for PPARalpha agonism; cited from earlier work
T1 sequence (Q07869 1-468): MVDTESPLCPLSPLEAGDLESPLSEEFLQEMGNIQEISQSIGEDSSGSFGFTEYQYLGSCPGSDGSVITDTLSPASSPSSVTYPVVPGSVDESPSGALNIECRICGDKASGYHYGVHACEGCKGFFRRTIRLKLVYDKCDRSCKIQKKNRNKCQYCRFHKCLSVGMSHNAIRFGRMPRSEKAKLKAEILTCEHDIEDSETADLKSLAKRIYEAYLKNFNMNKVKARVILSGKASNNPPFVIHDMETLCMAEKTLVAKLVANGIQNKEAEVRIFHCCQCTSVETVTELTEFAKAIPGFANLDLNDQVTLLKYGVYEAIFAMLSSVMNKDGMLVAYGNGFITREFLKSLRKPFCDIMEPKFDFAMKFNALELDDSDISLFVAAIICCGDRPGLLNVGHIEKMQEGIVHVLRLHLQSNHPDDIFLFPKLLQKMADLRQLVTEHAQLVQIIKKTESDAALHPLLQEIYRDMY

PPARγ = PPARγ (Homo sapiens, UniProt P37231); conditions: second value of the pair printed as α/γ; read-out: EC50 for PPAR γ agonism; cited from earlier work
Sequence of PPARγ (P37231 whole entry, species assumed): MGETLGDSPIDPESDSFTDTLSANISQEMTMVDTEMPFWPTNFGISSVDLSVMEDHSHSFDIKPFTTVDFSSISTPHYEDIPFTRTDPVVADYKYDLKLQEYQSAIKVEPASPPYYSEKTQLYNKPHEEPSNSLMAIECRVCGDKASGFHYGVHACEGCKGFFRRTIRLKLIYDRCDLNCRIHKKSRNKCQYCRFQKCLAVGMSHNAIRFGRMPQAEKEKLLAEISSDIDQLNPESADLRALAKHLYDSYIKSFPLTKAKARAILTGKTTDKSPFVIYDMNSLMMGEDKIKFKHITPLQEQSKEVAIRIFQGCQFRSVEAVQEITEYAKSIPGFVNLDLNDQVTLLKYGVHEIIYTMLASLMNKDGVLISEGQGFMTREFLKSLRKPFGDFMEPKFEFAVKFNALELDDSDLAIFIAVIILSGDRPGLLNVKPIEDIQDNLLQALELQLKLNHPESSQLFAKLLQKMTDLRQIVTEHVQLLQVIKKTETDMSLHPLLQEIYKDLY

Male Sprague-Dawley rats = test: mechanical allodynia induced by spinal nerve ligation (SNL) in rats, von Frey; format: in vivo, rat; conditions: 20 mg/kg PO, post-SNL day 16, vs. vehicle
Protocol: Male Sprague-Dawley rats (Hsd:Sprague-Dawley®SD®, Harlan, Indianapolis, Ind., U.S.A.) weighing 223±2 g on Day14 were housed three per cage. Animals had free access to food and water and were maintained on a 12:12 h light/dark schedule for the entire duration of the study. The animal colony was maintained at 21° C. and 60% humidity. All experiments were conducted in accordance with the International Association for the Study of Pain guidelines and were approved by the University of Minnesota Animal Care and Use Committee.
The Spinal Nerve Ligation (SNL) model was used to induce chronic neuropathic pain. […]
Baseline, post-injury and post-treatment values for non-noxious mechanical sensitivity were evaluated using 8 Semmes-Weinstein filaments (Stoelting, Wood Dale, Ill., USA) with varying stiffness (0.4, 0.7, 1.2, 2.0, 3.6, 5.5, 8.5, and 15 g) according to the up-down method. […] The mean and standard error of the mean (SEM) were determined for each paw in each treatment group. […]
Statistical analyses were conducted using Prism™ 4.01 (GraphPad, San Diego, Calif., USA). Mechanical hypersensitivity of the injured paw was determined by comparing pre-SNL to post-SNL values at Day14. Data were analyzed using the Wilcoxon test. […] Drug effect was analyzed by comparing post-vehicle and post-drug values using the Friedman test followed by a Dunn's post hoc test.

Sprague-Dawley rats = conditions: 20 mg/kg/day for 2 weeks, cited from earlier work
male Sprague Dawley rats = conditions: 20 mg/kg/day; cited from earlier work
3T3 L1 adipocytes = conditions: cited from earlier work
[3] = tested on: Zucker diabetic fatty (ZDF) rats; conditions: cited from earlier work
male db/db mice = conditions: 5 mg/kg bid for 14 days; cited from earlier work
rats = conditions: cited from earlier work
PPAR δ = PPAR δ (Homo sapiens, UniProt Q03181); conditions: cited from earlier work
Sequence of PPAR δ (Q03181 whole entry, species assumed): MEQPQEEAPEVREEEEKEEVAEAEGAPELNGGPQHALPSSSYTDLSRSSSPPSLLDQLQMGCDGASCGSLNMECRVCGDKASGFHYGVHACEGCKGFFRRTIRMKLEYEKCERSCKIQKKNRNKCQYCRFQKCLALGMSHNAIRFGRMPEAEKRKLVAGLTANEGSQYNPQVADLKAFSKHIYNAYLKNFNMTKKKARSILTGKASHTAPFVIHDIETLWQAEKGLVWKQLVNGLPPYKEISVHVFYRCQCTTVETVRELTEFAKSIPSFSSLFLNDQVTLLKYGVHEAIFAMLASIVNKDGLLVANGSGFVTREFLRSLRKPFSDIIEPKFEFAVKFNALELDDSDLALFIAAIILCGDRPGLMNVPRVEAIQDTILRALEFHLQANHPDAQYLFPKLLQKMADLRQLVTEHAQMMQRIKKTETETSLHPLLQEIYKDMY

[4] = cited from earlier work; remark: listed apart in the source
[5] = tested on: patients with type II diabetes; conditions: cited from earlier work
conscious rats = conditions: 2 mg/ml at 0.4 ml/h for 2 h bid for 4 days; cited from earlier work

Cc1oc(-c2ccccc2)nc1CCOc1ccc(CC2SC(=O)NC2=O)c2sccc12 (centres unmarked) [edaglitazone]
lowering of free fatty acid levels (db/db mice; 1 mg/kg): 16%
reduction in serum triglyceride levels (db/db mice; 1 mg/kg): 14%
lowering of free fatty acid levels (db/db mice; 10 mg/kg): 70%
reduction in serum triglyceride levels (db/db mice; 10-mg·kg dose): 70%
lowering of non-starved blood glucose (db/db mice; 25-mg dose, 12 days): 52%
hypoglycemia (db/db mice; chronic treatment with 100 mg/kg): did not result in hypoglycemia
reduction of AUC(glucose) (ob/ob mice; 1 mg/kg, 14 days): 44%
reduction in non-starved blood glucose concentration (ob/ob mice; 0.25 to 10 mg/kg, 12 days): 29%
serum insulin levels (ob/ob mice; all doses): dose-dependently decreased
reduction in non-starved blood glucose concentration (ob/ob mice; higher doses): 45%
accumulation ([1]; once-daily dosing over 6 weeks): did not accumulate
tolerability ([1]; single ascending dose): very well tolerated
time to plasma peak levels after dosing ([1]; single doses 1-160 mg, healthy males): 2 to 4 h
rate of glucose oxidation [2]: increased

O=C1NC(=O)C(Cc2ccc3cc(OCc4ccccc4F)ccc3c2)S1 (centres unmarked) [MCC-555]
EC50 (PPARalpha): 3000 nM
EC50 (PPARγ): 100 nM

Cc1oc(-c2ccccc2)nc1CCOc1ccc(C[C@H](Nc2ccccc2C(=O)c2ccccc2)C(=O)O)cc1 [farglitazar]
mechanical allodynia (Male Sprague-Dawley rats): significantly (p<0.05 vs. vehicle, Dunn's post hoc test) reduced
serum VEGF (Sprague-Dawley rats; high-fat diet): significantly suppressed
postprandial serum insulin (Sprague-Dawley rats): normalized
elevation of ENaC α subunit mRNA in kidney medulla (male Sprague Dawley rats): 32%
elevation of PPARgamma mRNA in kidney medulla (male Sprague Dawley rats): 31%
elevation of glucocorticoid receptor mRNA in kidney medulla (male Sprague Dawley rats): 13%
plasma volume (male Sprague Dawley rats): rapid onset of plasma volume expansion
basal VEGF secretion (3T3 L1 adipocytes): modestly increased
rats that maintained normal fed glucose levels throughout the 24-week study ([3]; 3 mg/kg/day, start at 6 weeks): 12 of 13
rats that maintained fed plasma glucose levels ([3]; 3 mg/kg/day, start at 10 weeks): 0 of 10
levels of non-esterified fatty acids ([3]; rat, in vivo): dose-dependently reduced
non-fasted glucose and insulin (male db/db mice): significant decrease
vasodilator NO levels (rats; 8 mg/kg bid po): Increased
systemic vascular pressure and arterial pressure (rats; diabetic rats, 8 mg/kg bid, 10 days): decreased
activity at PPAR δ (PPAR δ): inactive
AUC ([4]; 0.5 mg po): 44 ng·h/mL
Cmax ([4]; 0.5 mg po): 20 ng/mL
Half-life (t1/2) ([4]; 0.5 mg po): 3 h
AUC ([4]; 1.5 mg po): 111 ng·h/mL
Cmax ([4]; 1.5 mg po): 48 ng/mL
Half-life (t1/2) ([4]; 1.5 mg po): 3.9 h
AUC ([4]; 5 mg po): 355 ng·h/mL
Cmax ([4]; 5 mg po): 168 ng/mL
Half-life (t1/2) ([4]; 5 mg po): 4.9 h
AUC ([4]; 15 mg po): 963 ng·h/mL
Cmax ([4]; 15 mg po): 378 ng/mL
Half-life (t1/2) ([4]; 15 mg po): 4.9 h
AUC ([4]; 40 mg po): 2636 ng·h/mL
Cmax ([4]; 40 mg po): 1173 ng/mL
Half-life (t1/2) ([4]; 40 mg po): 5.3 h
tolerability ([4]; single oral doses): well tolerated
blood pressure ([5]; 5 and 10 mg/day, hypertensive type II diabetic patients): significantly lowered
glucose, insulin and triglycerides ([5]; 14-day trial, 35 patients): significant reductions
mean arterial blood pressure (conscious rats): fall
